Data set [1] can be described thus: Metabolite analysis in plasma and liver. The class given is in vivo, mice. The procedure: Following intravenous injection of [^11C]PK68 (37 MBq, 0.1 mL), the mice (8–9 weeks, 40.1 ± 5.3 g) were killed by cervical dislocation at 5, 15, 30, and 60 min. Blood and liver samples were obtained immediately. Each blood sample was centrifuged in a heparinized tube at 15,000 g for 2 min at 4 °C to separate the plasma. The supernatant was collected in a test tube containing CH3CN, and the resulting mixture was vortexed for 15 s, then centrifuged at 15,000 g for 2 min for deproteinization. The resulting supernatant was collected. Each liver sample was homogenized using a Silent Crusher S homogenizer (Rose scientific, Edmonton, Canada) in ice-cooled saline. The resulting homogenate was mixed with an equivalent amount of CH3CN, and centrifuged at 15,000 g for 2 min for deproteinization. An aliquot of the supernatant (0.1–1.0 mL) obtained from the plasma or liver homogenate was injected into the HPLC system with a radioactivity detector, and analyzed using a Capcell Pak C18 column (4.6 mm i.d. × 250 mm, Shiseido) with a mobile phase [CH3CN/H2O/TFA, (45/55/0.1, v/v/v)] at a flow rate of 1.0 mL/min. The percentage ratio of [^11C]PK68 (tR = 5.0 min) to total radioactivity (corrected for decay) on the HPLC chromatogram was calculated as % = (peak area for [^11C]PK68/total peak area) × 100.

The nature of data set [2]: Lipophilicity (logD), n-octanol/PBS pH 7.4 shake-flask. The class given is physicochemical. The settings on record: n-octanol/PBS pH 7.4, room temperature. Here is the method: An aliquot of 0.65 mL PBS and 0.65 mL n-octanol was removed and weighed, and its radioactivity was determined using an autogamma counter (2480 Wizard^2, Perkin-Elmer, Waltham, MA, USA). Each sample from the remaining organic layer was removed and repartitioned until a consistent logD value was obtained. The logD value was calculated by comparing the ratio of counts per minute (cpm)/g of n-octanol to that of PBS, and is expressed as logD = log[cpm/g (n-octanol)/cpm/g (PBS)]. All measurements were performed in triplicate.

“And” between values parts separate entries of the source, which are not always exact repeats. Equal values may be shown once.

A word on the logD: it is the decadic logarithm of the distribution of all forms, ionised or not, between an organic phase and buffer at a given pH. `Cc1ncc(-c2ccc3nc(N[11C](C)=O)sc3c2)cc1NC(=O)OC1CCCCC1` [[^11C]PK68, Cyclohexyl (5-(2-[^11C-carbonyl]acetamidobenzo[d]thiazol-6-yl)-2-methylpyridin-3-yl)carbamate]: the “unchanged [11C]PK68 in liver” value in data set [1] (5 min after injection) was 85%; in data set [1] (15 min after injection), 67%; in data set [1] (30 min after injection) it was 68%; in data set [1] (60 min after injection), 57%. The “unchanged [11C]PK68 in plasma” value in data set [1] (5 min after injection) was 85%; in data set [1] (15 min after injection), 66%; in data set [1] (30 min after injection), 65%; in data set [1] (60 min after injection) it was 57% and > 50%. This compound also showed a logD in data set [2] of 4.

The values are drawn from article PMC8924334, “Synthesis of [^11C]carbonyl-labeled cyclohexyl (5-(2-acetamidobenzo[d]thiazol-6-yl)-2-methylpyridin-3-yl)carbamate ([^11C-carbonyl]PK68) as a potential PET tracer for receptor-interacting protein 1 kinase” (EJNMMI Radiopharmacy and Chemistry, 2022).
